From patent publication US20100256105A1, “NOVEL COMPOUNDS” (AstraZeneca R&D, priority 2009, published 2010)

target: T1, recombinant human GR (Homo sapiens, UniProt P04150); test: Human Glucocorticoid Receptor (GR) Assay, fluorescence polarization; conditions: GS Red tracer, 2 hours at room temperature, 100% control 10 μM Dexamethasone, read-out: Inhibition of GR binding, IC50
T1 construct: purchased Panvera/Invitrogen P2812 (kit P2893)
T1 sequence (P04150 1-777): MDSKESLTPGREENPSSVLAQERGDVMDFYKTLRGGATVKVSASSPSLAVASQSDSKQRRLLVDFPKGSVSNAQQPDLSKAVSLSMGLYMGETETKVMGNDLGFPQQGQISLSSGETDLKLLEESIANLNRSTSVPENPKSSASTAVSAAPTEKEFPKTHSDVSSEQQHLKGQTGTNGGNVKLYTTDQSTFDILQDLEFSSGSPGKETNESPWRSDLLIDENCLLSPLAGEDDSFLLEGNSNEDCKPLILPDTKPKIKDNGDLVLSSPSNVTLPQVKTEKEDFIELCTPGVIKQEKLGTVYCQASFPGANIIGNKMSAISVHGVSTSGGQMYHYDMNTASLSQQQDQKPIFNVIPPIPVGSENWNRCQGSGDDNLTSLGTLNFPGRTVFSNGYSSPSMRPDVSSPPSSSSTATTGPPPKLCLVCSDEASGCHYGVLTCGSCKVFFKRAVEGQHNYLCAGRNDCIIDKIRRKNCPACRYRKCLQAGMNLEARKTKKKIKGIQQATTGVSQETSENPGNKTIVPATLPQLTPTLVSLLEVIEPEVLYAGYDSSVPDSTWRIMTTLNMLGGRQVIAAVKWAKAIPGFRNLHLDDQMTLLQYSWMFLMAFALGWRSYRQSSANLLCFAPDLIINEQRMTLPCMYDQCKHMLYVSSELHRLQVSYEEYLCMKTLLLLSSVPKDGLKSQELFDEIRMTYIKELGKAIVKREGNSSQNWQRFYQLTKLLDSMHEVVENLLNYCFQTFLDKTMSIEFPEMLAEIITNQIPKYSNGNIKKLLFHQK
Method: Human Glucocorticoid Receptor (GR) Assay The assay is based on a commercial kit from Panvera/Invitrogen (Part number P2893). The assay technology is fluorescence polarization. The kit utilises recombinant human GR (Panvera, Part number P2812), a Fluoromone™ labelled tracer (GS Red, Panvera, Part number P2894) and a Stabilizing Peptide 10× (Panvera, Part number P2815). The GR and Stabilizing Peptide reagents are stored at −70° C. while the GS Red is stored at −20° C. Also included in the kit are 1M DTT (Panvera, Part number P2325, stored at −20° C.) and GR Screening buffer 10× (Panvera, Part number P2814, stored at −70° C. initially but once thawed stored at room temperature). Avoid repeated freeze/thaws for all reagents. The GR Screening buffer 10× comprises 100 mM potassium phosphate, 200 mM sodium molybdate, 1 mM EDTA and 20% DMSO. Test compounds (1 μL) and controls (1 μL) in 100% DMSO were added to black polystyrene 384-well plates (Greiner low volume black flat-bottom, part number 784076). 0% control was 100% DMSO and 100% control was 10 μM Dexamethasone. Background solution (8 μL; assay buffer 10×, Stabilizing Peptide, DTT and ice cold MQ water) was added to the background wells. GS Red solution (7 μL; assay buffer 10×, Stabilizing Peptide, DTT, GS Red and ice cold water) was added to all wells except background wells. GR solution (7 μL; assay buffer 10×, Stabilizing Peptide, DTT, GR and ice cold water) was added to all wells. The plate was sealed and incubated in a dark at room temperature for 2 hours. The plate was read in an Analyst plate reader (LJL Biosystems/Molecular Devices Corporation) or other similar plate reader capable of recording fluorescence polarization (excitation wavelength 530 nm, emission wavelength 590 nm and a dichroic mirror at 561 nm).

Row | IC50 [nM] | Compound
1 | 2.9 | CC1=C[C@@H]2[C@H]([C@@H](O)C[C@@]3(C)[C@H]2CC[C@]3(OC(=O)c2cocn2)C(=O)SCF)[C@@]2(C)Cc3cnn(-c4ccc(F)nc4)c3C=C12 [Example 14, (1R,3aS,3bS,10aR,10bS,11S,12aS)-1-{[(fluoromethyl)sulfanyl]carbonyl}-7-(6-fluoropyridin-3-yl)-11-hydroxy-5,10a,12a-trimethyl-1,2,3,3a,3b,7,10,10a,10b,11,12,12a-dodecahydrocyclopenta[5,6]naphtho [1,2-f]indazol-1-yl 1,3-oxazole-4-carboxylate]
2 | 3.7 | CC1=C[C@@H]2[C@H]([C@@H](O)C[C@@]3(C)[C@H]2CC[C@]3(OC(=O)c2cocn2)C(=O)SCC#N)[C@@]2(C)Cc3cnn(-c4ccc(F)nc4)c3C=C12 [Example 15, (1R,3aS,3bS,10aR,10bS,11S,12aS)-1-{[cyanomethyl)sulfanyl]carbonyl}-7-(6-fluoropyridin-3-yl)-11-hydroxy-5,10a,12a-trimethyl-1,2,3,3a,3b,7,10,10a,10b,11,12,12a-dodecahydrocyclopenta[5,6]naphtho [1,2-f]indazol-1-yl 1,3-oxazole-4-carboxylate]
3 | 1.5 | COCC(=O)O[C@]1(C(=O)SCF)CC[C@H]2[C@@H]3C=C(C)C4=Cc5c(cnn5-c5ccc(F)nc5)C[C@]4(C)[C@H]3[C@@H](O)C[C@@]21C [Example 16, (1R,3aS,3bS,10aR,11S,12aS)-1-{[(fluoromethyl)sulfanyl]carbonyl}-7-(6-fluoropyridin-3-yl)-11-hydroxy-5,10a,12a-trimethyl-1,2,3,3a,3b,7,10,10a,10b,11,12,12a-dodecahydrocyclopenta[5,6]naphtho [1,2-f]indazol-1-yl methoxyacetate]
4 | 4.8 | CCC(=O)O[C@]1(C(=O)SCC#N)[C@H](C)C[C@H]2[C@@H]3C=C(C)C4=Cc5c(cnn5-c5ccccc5)C[C@]4(C)[C@H]3[C@@H](O)C[C@@]21C [Example 17, (1R,2R,3aS,3bS,10aR,10bS,11S,12aS)-1-{[(cyanomethyl)sulfanyl]carbonyl}-11-hydroxy-2,5,10a,12a-tetramethyl-7-phenyl-1,2,3,3a,3b,7,10,10a,- 10b,11,12,12a-dodecahydro-cyclopenta[5,6]naphtho[1,2-f]indazol-1-yl propanoate]
5 | 12 | CC1=C[C@@H]2[C@H]([C@@H](O)C[C@@]3(C)[C@H]2C[C@@H](C)[C@]3(OC(=O)c2ccco2)C(=O)SCC#N)[C@@]2(C)Cc3cnn(-c4ccccc4)c3C=C12 [Example 18, (1R,2R,3aS,3bS,10aR,10bS,11S,12aS)-1-{[(cyanomethyl)sulfanyl]carbonyl}-11-hydroxy-2,5,10a,12a-tetramethyl-7-phenyl-1,2,3,3a,3b,7,10,10a,- 10b,11,12,12a-dodecahydro-cyclopenta[5,6]naphtho[1,2-f]indazol-1-yl furan-2-carboxylate]
